Test results reported in US10620222B2, “Electrified compositions for determining the risk of developing adolescent idiopathic scoliosis through the use of GI protein receptor” (CHU Sainte-Justine, priority 2008, dated 2020).
Values joined by “and” are separate entries in the source; they are usually repeats but may differ in a detail not shown here. Identical values can stand only once.

How the values were obtained:
[1] = tested on: melatonin signaling in PBMCs; assay: CDS response to iodomelatonin in PBMCs from control and IS subjects; type: cell-based, human
Excerpt: Blood samples were obtained from patients and control groups and collected in blood collection tubes containing EDTA and then centrifuged on a Ficoll-Plaque (GE Healthcare, Mississauga, ON, Canada) solution to obtain PBMCs (containing principally lymphocytes). PBMC fractions were preserved frozen in FBS with 10% DMSO and kept in liquid nitrogen until thawed and assayed. PBMCs were harvested from stock tissue culture flask and washed three times with assay buffer. Cells were isolated from the heparinized peripheral by ficoll-Hypaque density gradient centrifugation, and cultured in RPMI 1640 medium supplemented with 10% FBS, 100 μg/mL streptomycin and 1% of phytohemagglutinin. Following 48 h of incubation at 37° C./CO2 cells were washed three times with assay buffer and seeded into the CELLKEY™ label-free cellular analysis system small 96-well plates. Typically, an average of 1×10^5 cells to 1.5×10^5 were added to each well and allowed to settle for 30 min at room temperature. […] After the cells settled, the cell plate was placed on the instrument and experiments were initiated in the manner described below after the acquisition of 5 min of baseline measurements. All experiments were conducted at 28° C.
(§1) The response induced by the various ligands to their receptors was measured by cellular dielectric spectroscopy (CDS) using the CELLKEY™ label-free cellular analysis technology. (MDS Sciex, San Francisco, Calif., USA). The CELLKEY™ label-free cellular analysis system integrates a proprietary impedance measurement system, custom 96-well microliter plate, onboard 96-well fluidics, and environment control and custom acquisition and analysis software in a full solution package (MDS Sciex) that is compatible with commercially available robotic platforms. Small voltage at 24 frequencies, from 1 KHz to 10 MHz, is applied to a monolayer of cells settled in a 96-well microplate containing electrodes at the bottom, and the resultant current is measured at an update rate of 2 s. […] Onboard fluid additions and exchanges are handled by 96-well head fluid delivery device with a range of 5-500 μL. In addition to the cell plate location, the CELLKEY™ label-free cellular analysis system includes two additional stations for 96- or 384-well compound plates. All aspects of assay set up, execution, and data acquisition and analysis are controlled by CELLKEY™ label-free cellular analysis software.
PBMCs were isolated from control subjects, IS subjects as described in Example 2 above.

[2] = tested on: Gi protein-mediated pathway in MG63 osteoblast cell line; type: cell-based; conditions: 100 ng/mL PTX 16 h, stimulation with 10 μM ligand, 37° C., 5 min
Description: The ability of CDS to detect the relative part of the Gi protein-mediated pathway in melatonin signaling was determined by blocking this pathway with pertussis toxin (PTX). This toxin ADP-ribosylates the a subunit of the heterotrimeric Gi protein and thereby prevents its activity. The MG63 osteoblast cell line was serum-starved for 16 h in the absence or presence of 100 ng/mL of PTX to inhibit the αi subunit of Gi protein. […] Cellular responses were measured with CELLKEY™ label-free cellular analysis system as described in the Material and Methods section.

[3] = tested on: receptors coupled to Gi proteins expressed on osteoblasts; assay: Cellular Dielectric Spectroscopy (CDS, CELLKEY) response to Gi-coupled receptor ligands in osteoblasts from control and AIS subjects; type: cell-based, human; conditions: for dZiec value: n1, n2 of Exper. 1-3
Excerpt: Bone specimens were obtained intraoperatively from vertebras (varying from T3 to L4 according to the surgical procedure performed), while with trauma cases used as non-scoliotic controls bone specimens were obtained from other anatomical sites (tibia or femur, and in one case from an iliac crest biopsy). Osteoblasts and myoblasts isolated as previously described (Moreau A, Wang D S, Forget S et al. Melatonin Signaling Dysfunction in Adolescent Idiopathic Scoliosis. Spine 2004; 29:1772-81; Azeddine et al., 2007 Molecular determinants of melatonin signaling dysfunction in adolescent idiopathic scoliosis. Clin Orthop Relat Res. 2007, 462:45-52), were cultured at 37° C./5% CO2 in MEM supplemented with 10% fetal bovine serum (FBS) and 100 μg/mL streptomycin. Prior to the experiment, cells were seeded into the CELLKEY™ label-free cellular analysis system standard 96-well plates at a density of 5×10^4/well and grown for 24 h and incubated in standard conditions (37° C./5% CO2). In some plates, Pertussis toxin (100 ng/mL, Sigma, Oakville, ON, Canada) treatment was performed 16 h before the CDS assay. Following overnight incubation, plates were placed onto the CELLKEY™ label-free cellular analysis system and growth medium was exchanged to assay buffer (Hanks, Balanced Salt Solution containing 20 mM HEPES and 0.1% BSA) before starting the experiment. Cells were then allowed to equilibrate at room temperature for 30 min. Pre-addition measurements were made for 5 min to obtain a baseline reading. […] The quick update rate (2 s.) of the CELLKEY™ label-free cellular analysis system allows detection of these immediate changes in impedance. Impedance measurements were collected for 10 min to 15 min at 28° C. after ligand addition to monitor cellular responses to ligand interaction and to generate CELLKEY™ label-free cellular analysis system response profiles that are characteristic of the signaling mechanisms used.
as §1
The minimal (min) and maximal (max) values represent the mean of three independent measurements performed in duplicate (six values in total) for a given patient/control subject. […] Duplicates (n1 and n2) of three independent experiments are presented.

[4] = PBMCs of control subjects, 300 μM, from FIG. 12A
[5] = osteoblasts of control subjects, 300 μM ligand, from FIGS. 11A-11F

Structure (SMILES): COc1ccc2[nH]c(I)c(CCNC(C)=O)c2c1 [Iodomelatonin, 2-lodomelatonin]
- maximal magnitude of CDS response ([1]; PBMCs from IS patients, 300 μM): 110 ohms
- minimum magnitude of CDS response ([1]; PBMCs from IS patients, 300 μM): 16 ohms
- minimal magnitude of CDS response ([1]; PBMCs from healthy volunteers, 300 μM): 124 ohms
- melatonin signaling response (CDS) ([1]; PBMCs from normal/healthy subjects, 300 μM): greater than 120 ohms
- Absolute dZiec, control value of max diff. (maximal control value) [1, 4]: 225
- Absolute dZiec, control value of min diff. (minimal control value) [1, 4]: 124
- responsiveness of PBMCs from patients with IS compared to healthy volunteers ([1]; PBMCs, FIG. 12A, melatonin data not shown): less responsive
- Absolute dZiec, Group 1, max diff. (group value) ([1]; PBMCs, Group 1 value of max diff., 300 μM, from FIG. 12A): 16
- Absolute dZiec, Group 1, min diff. (group value) ([1]; PBMCs, Group 1 value of min diff., 300 μM, from FIG. 12A): 36
- Absolute dZiec, Group 2, max diff. (group value) ([1]; PBMCs, Group 2 value of max diff., 300 μM, from FIG. 12A): 49
- Absolute dZiec, Group 2, min diff. (group value) ([1]; PBMCs, Group 2 value of min diff., 300 μM, from FIG. 12A): 75
- Absolute dZiec, Group 3, max diff. (group value) ([1]; PBMCs, Group 3 value of max diff., 300 μM, from FIG. 12A): 86
- Absolute dZiec, Group 3, min diff. (group value) ([1]; PBMCs, Group 3 value of min diff., 300 μM, from FIG. 12A): 110
- mean of CDS response ([1]; PBMCs, IS group 1, 300 μM): 27.86±4.18 ohms
- mean of CDS response ([1]; PBMCs, IS group 2, 300 μM): 65.71±3.42 ohms
- mean of CDS response ([1]; PBMCs, IS group 3, 300 μM): 97.94±1.36 ohms
- mean of CDS response ([1]; PBMCs, control group, 300 μM): 155.17±3.91 ohms
- inhibition extent of the CDS response by PTX treatment [2]: ~90%
- CDS response, dependence on concentration ([3]; osteoblasts from both control and IS patients, FIGS. 4A-4C): concentration-dependent manner
- dZiec value ([3]; osteoblasts of AIS#1020 (Group 3), 300 μM ligand): 69.57 and 66.57 and 85.25 and 97.25 and 83.71 and 74.11
- dZiec value ([3]; osteoblasts of AIS#1198 (Group 3 in Table II), 300 μM ligand): 61.05 and 65.29 and 70.29 and 60.97 and 57.37
- dZiec value ([3]; osteoblasts of AIS#1385 (Group 2), 300 μM ligand): 66.51 and 67.51 and 79.93 and 81.93 and 79.02 and 69.42
- dZiec value ([3]; osteoblasts of AIS#1468 (Group 3), 300 μM ligand): 91.38 and 88.38 and 101.69 and 113.69 and 102.83 and 93.23
- dZiec value ([3]; osteoblasts of AIS#1474 (Group 1), 300 μM ligand): 33.02 and 32.02 and 38.33 and 32.33 and 39.97 and 36.37
- dZiec value ([3]; osteoblasts of AIS#1488 (Group 1), 300 μM ligand): 25.43 and 27.43 and 30.31 and 27.31 and 19.17 and 19.57
- dZiec value ([3]; osteoblasts of AIS#1513 (Group 3), 300 μM ligand): 83.92 and 80.92 and 94.08 and 106.08 and 95.30 and 85.70
- dZiec value ([3]; osteoblasts of AIS#1550 (Group 2), 300 μM ligand): 55.99 and 48.99 and 60.90 and 62.90 and 62.74 and 59.14
- dZiec value ([3]; osteoblasts of control CTR#60, 300 μM ligand): 142.55/— and 139.55/— and 149.20/— and 161.20/— and 152.18/— and 142.58/—
- dZiec value ([3]; osteoblasts of control CTR#61, 300 μM ligand): 130.88/— and 127.88/— and 138.31/— and 150.31/— and 140.90/— and 131.30/—
- dZiec value ([3]; osteoblasts of control CTR#69, 300 μM ligand): 150.99/— and 147.99/— and 161.10/— and 173.10/— and 162.34/— and 152.74/—
- Absolute dZiec, control value of max diff. (maximal control value) [3, 5]: 159
- Absolute dZiec, control value of min diff. (minimal control value) [3, 5]: 120
- Absolute dZiec, Group 1, max diff. (group value) ([3]; osteoblasts, AIS Group 1 value of max diff., 300 μM ligand, from FIGS. 11A-11F): 15
- Absolute dZiec, Group 1, min diff. (group value) ([3]; osteoblasts, AIS Group 1 value of min diff., 300 μM ligand, from FIGS. 11A-11F): 35
- Absolute dZiec, Group 2, max diff. (group value) ([3]; osteoblasts, AIS Group 2 value of max diff., 300 μM ligand, from FIGS. 11A-11F): 57
- Absolute dZiec, Group 2, min diff. (group value) ([3]; osteoblasts, AIS Group 2 value of min diff., 300 μM ligand, from FIGS. 11A-11F): 84
- Absolute dZiec, Group 3, max diff. (group value) ([3]; osteoblasts, AIS Group 3 value of max diff., 300 μM ligand, from FIGS. 11A-11F): 90
- Absolute dZiec, Group 3, min diff. (group value) ([3]; osteoblasts, AIS Group 3 value of min diff., 300 μM ligand, from FIGS. 11A-11F): 101
- magnitude of CDS response in IS osteoblasts vs control ([3]; osteoblasts, FIGS. 4A-4C): significantly lower
